# From publication PMC5788896 (Frontiers in Pharmacology, 2018)
# Experiments:
# [1] = set-up: method as in Turina et al., 2006; details: ref Turina et al., 2006; cited from earlier work
# [2] = system: NCM460 cell monolayers; details: P-gp efflux transporter substrate; ref Marchetti et al., 2016; cited from earlier work
# [3] = system: NCM460 cell monolayers; assay: Permeation studies across NCM460 cell monolayers (Millicell inserts, HPLC); type: in vitro ADME, human; details: A → B higher than B → A, P < 0.001
# Method: Differentiation to NCM460 cell monolayers was performed essentially according to the method reported by [Ferretti et al. (2015)]. Briefly, after two passages, confluent NCM460 cells were seeded at a density of 10^5 cells/mL in a 1:1 ratio of fresh and spent culture medium in 12-well Millicell inserts (Millipore, Milan, Italy) consisting of 1.0 μm pore size polyethylene terephthalate (PET) filter membranes, whose surface was 1.12 cm^2. Filters were presoaked for 24 h with fresh culture medium, and then the upper compartment (apical, A) received 400 μL of the diluted cells, whereas the lower compartment (basolateral, B) received 2 mL of the medium in the absence of cells. […] The integrity of the cell monolayers was monitored by measuring the transepithelial electrical resistance (TEER) by means of a voltmeter (Millicell-ERS; Millipore, Milan, Italy). The measured resistance value was multiplied by the area of the filter to obtain an absolute value of TEER, expressed as Ω⋅cm^2. […] The homogeneity and integrity of the cell monolayer were also monitored by phase contrast microscopy. […]
# Permeation experiments were performed in triplicate in both the apical-to-basolateral (A → B) and basolateral-to-apical (B → A) directions. […] TEER values were monitored before and after each experiment. […]
# The permeabilities were determined for the filters alone (Pf), and for the filters covered with cells (Pt). […]
# [4] = Stability of geraniol in phosphate buffered saline; type: physicochemical; details: 37°C, for at least 8 h, data not shown
# Text: During the experiment drug solutions were shaken continuously and gently in an oscillating water-bath.
# [5] = Intravenous infusion pharmacokinetics, whole blood by HPLC; type: in vivo, Sprague-Dawley rats
# Method: The samples were extracted and analyzed as described above, with the only difference that the samples withdrawn within 20 min after infusion were diluted 1:10 using the H2O:CH3CN mixture (50:50 v/v) before analysis. Four rats ware employed for intravenous infusions of geraniol. […] The calculations were performed using the computer program GraphPad Prism. […] At the end of the oral administration and at fixed time points, blood samples (100 μL) were collected and CSF samples (50 μL) were withdrawn using the cysternal puncture method described by [van den Berg et al. (2002)], which requires a single needle stick and allows the collection of serial (40–50 μL) CSF samples that are virtually blood-free ([Dalpiaz et al., 2014]). A total volume of approximately 150 μL of CSF was collected during the experimental session. […] In particular, blood withdrawals for all programmed time points were repeated four times with a corresponding number of rats; CSF withdrawals for all programmed time points were repeated at least four times with a number of rats allowing no more than three CSF withdrawals from each of them. […] All the calculations were performed using the computer program Graph Pad Prism.
# [6] = system: Glutathione S-transferase (GST); assay: Glutathione S-transferase activity in liver after 28-day treatment; type: in vivo, C57BL/6 mice; details: mice liver
# Method: (§1) At the end of treatment, mice were killed.
# The incubation mixture for measuring overall GST activity contained 1 mM glutathione + 1 mM 1-chloro-2,4-dinitrobenzene (CDNB) in methanol + 0.025 mL of sample in a final volume of 2.5 mL 0.1 M phosphate Na^+/K^+ buffer (pH 6.5). The product of the reaction of the thiol group of glutathione with the electrophilic group of CDNB was read at 340 nm (ε = 9.6 mM^-1 cm^-1) ([Vivarelli et al., 2016a]).
# [7] = system: UDP glucuronosyl-transferase (UDPGT); assay: UDP-glucuronosyl transferase activity in liver after 28-day treatment; type: in vivo, C57BL/6 mice; details: mice liver
# Method: At the end of treatment, mice were killed. […] Experiments were performed in the presence or absence of Triton X-100 (0.2%) as a detergent, in order to improve the assay sensitivity ([Canistro et al., 2008]).
# [8] = system: Catalase (CAT); assay: Catalase activity in liver after 28-day treatment; type: in vivo, C57BL/6 mice; details: mice liver
# Method: At the end of treatment, mice were killed. […] Catalase (CAT) activity. The reaction was started in a quartz cuvette containing 50 mM potassium phosphate buffer and cytosol sample by adding 30 mM H2O2.
# [9] = system: NAD(P)H: quinone reductase (NQO1); assay: NAD(P)H:quinone reductase activity in liver after 28-day treatment; type: in vivo, C57BL/6 mice; details: mice liver, geraniol 120 mg/kg by gavage for 28 days
# Text: At the end of treatment, mice were killed. […] NAD(P)H:quinone reductase (NQO1) activity.
# [10] = system: Superoxide dismutase (SOD); assay: Superoxide dismutase activity in liver after 28-day treatment; type: in vivo, C57BL/6 mice; details: mice liver
# Method: At the end of treatment, mice were killed. […] Superoxide dismutase activity (SOD): Superoxide dismutase activity was determined according to Misra and Fridovich’s assay ([Misra and Fridovich, 1972]). Briefly, the activity was assayed spectophotometrically at […] by monitoring the generation of adenochrome, one of the main products of epinephrine autoxidation at pH 10.2. The dejection of autoxidation was used to calculate SOD activity using the extinction coefficient of 4.02 per mM × cm, and expressed as mol of epinephrine oxidized/min per mg protein, derived by subtracting each test curve from the epinephrine autoxidation standard curve ([Bonamassa et al., 2016]).
# [11] = system: Oxidized glutathione reductase (GSSG-red); assay: Oxidized glutathione reductase activity in liver after 28-day treatment; type: in vivo, C57BL/6 mice; details: mice liver
# Method: At the end of treatment, mice were killed. […] Oxidized glutathione reductase activity (GSSG-red). […] The generation of NADP^+ from NADPH during the reduction of GSSG was recorded at 340 nm for 5 min at 37°C. GSSG-red activity was calculated using the extinction coefficient of 6.22 per mM x cm, and expressed as mol of NADPH consumed/min per mg protein ([Bonamassa et al., 2016]).
# [12] = Hematochemical analysis and lipid serum profile after 28-day treatment; type: in vivo, C57BL/6 mice
# Method: as §1
# For each animal, blood samples were collected in both heparinized and non-heparinized tubes. Plasma from heparinized samples was obtained after tabletop centrifugation at 2,000 rpm, while blood in non-heparinized tubes was centrifuged at 1,500 rpm for 10 min after complete coagulation, to obtain serum. Biochemical and hematological analyses were assessed by the Department of Veterinary Medical Science, University of Bologna.
# [13] = set-up: method as in Turina et al., 2006; details: ref Turina et al., 2006; cited from earlier work; remark: listed apart in the source
# [14] = intravenous administration of 1 mg/kg; ref Gavini et al., 2011; cited from earlier work
# [15] = 120 mg/kg 28 days, versus controls
# [16] = geraniol 120 mg/kg by gavage for 28 days
# [17] = mice blood, geraniol 120 mg/kg by gavage for 28 days
# [18] = mice serum, geraniol 120 mg/kg by gavage for 28 days
structure (smiles),measurement,setting,value
CC12CCC(CC1=O)C2(C)C (stereo not shown) [camphor],membrane/water partition coefficient (Pm/w),[1],3.99
CCN(CC)C(=O)Nc1ccc(OCC(O)CNC(C)(C)C)c(C(C)=O)c1 (stereo not shown) [celiprolol],direction of transport across NCM460 monolayers,[2],rate from basolateral to apical compartments being significantly higher than its rate in the opposite direction
CC12CCC(CC1)C(C)(C)O2 [cineole],membrane/water partition coefficient (Pm/w),[1],3.37
"CC(C)=CCC/C(C)=C/CO [geraniol, 3,7-dimethylocta-trans-2,6-dien-1-ol]",permeation rate apical to basolateral versus opposite direction,[3],roughly sixfold
same,stability in PBS,[4],highly stable
same,drug concentration in the rat bloodstream after intravenous infusion,"[5]; iv infusion 12.5 mg (50 mg/kg), end of infusion",298 ± 19 µg/mL
same,AUC,"[5]; male, Sprague-Dawley, rat, iv 50 mg/kg, blood, within 3 h, read-out: AUC, intravenous administration (converted)",126 µg·h/mL
same,half-life,"[5]; male, Sprague-Dawley, rat, iv infusion 12.5 mg (50 mg/kg), apparent first order kinetics, read-out: half-life in the bloodstream",12.5 ± 1.5 min
same,effect on Phase II enzymes (GST),[6]; [15],not affected
same,"Glutathione S-transferase (GST), Mean",[6]; [16],2.60 µmol/mg/min
same,effect on Phase II enzymes (UDPGT),[7]; [15],not affected
same,"UDP glucuronosyl-transferase (UDPGT), Mean",[7]; [16],3.89 nmol/mg/min
same,catalase (CAT) induction with respect to controls,"[8]; 120 mg/kg 28 days, P < 0.01",up to 29%
same,"Catalase (CAT), Mean",[8]; [16],2.55 µmol/mg/min
same,"NAD(P)H: quinone reductase (NQO1), Mean",[9],12.43 nmol/mg/min
same,effect on Superoxide dismutase (SOD) activity,[10]; [15],not affected
same,"Superoxide dismutase (SOD), Mean",[10]; [16],13.65 nmol/mg/min
same,oxidized glutathione reductase (GSSG-red) induction with respect to controls,"[11]; 120 mg/kg 28 days, P < 0.01",up to 56%
same,"Oxidized glutathione reductase (GSSG-red), Mean",[11]; [16],118.31 µmol/mg/min
same,ALT,[12]; [17],34 ± 5 U/l
same,AST,[12]; [17],149 ± 24 U/l
same,Cholesterol,[12]; [18],94 ± 7 mg/dL
same,HDL cholesterol,[12]; [18],66 ± 4 mg/dL
same,liver toxicity,"[12]; mice, 120 mg/kg of geraniol for 4 weeks",no signs of liver toxicity
same,n-octanol/water partition coefficient,[13],2.65
same,membrane/water partition coefficient (Pm/w),[1],4.38
CC1CCC(C(C)C)C(O)C1 (stereo not shown) [menthol],membrane/water partition coefficient (Pm/w),[1],2.44
CCCC(=O)O[C@H]1[C@H](C)O[C@@H](O[C@H]2[C@H](N(C)C)[C@@H](O)[C@H](O[C@H]3[C@@H](CC=O)C[C@@H](C)[C@@H](O)/C=C/C=C/C[C@@H](C)OC(=O)C[C@@H](O)[C@@H]3OC)O[C@@H]2C)C[C@@]1(C)OC(=O)CC [rokitamycin],concentration values in whole blood,[14],up to 7 μg/mL
